Assay results from patent US6184374A, “Targeted cytotoxic anthracycline analogs” (priority 1998, dated 2001).
Values joined by “and” are separate entries in the source; they are usually repeats but may differ in a detail not shown here. Identical values can stand only once. Like-named read-outs stand apart in the source and are kept apart here.

Key:
[1] = test system: MCF-7 human mammary carcinoma cell line; format: cell-based
Text: (§1) MXT estrogen-independen mouse mammary carcinoma cell line was obtained from Dr. Gunter Berndhart, University of Regensburg, Germany. All the other cell lines used in the determination of the antiproliferative activity of the compounds of this invention were obtained from the American Type Culture Collection (ATCC).
(§2) For the evaluation of the activity of the analogs, a colorimetric cytotoxicity assay in microtitration plates was used based on quantification of biomass by staining cells with crystal violet, which correlates very well with determination of cell numbers. (Reile et al.; Anal. Biochem. 187, 262-267, 1990; Bernhardt G. et al, J. Cancer Res. Clin. Oncol. (1992), 118, 35-43; Spruss Th. et al, J. Cancer Res. Clin. Oncol 117, 435-443, 1991; Gillies, R. J., Anal. Biochem. 159, 109-113, 1986; Kueng, W. et al.; Anal. Biochem., 182 16-19, 1989.)
(§3) One to two days after seeding cells in 96-well plates the culture medium is exchanged with fresh medium containing the compounds to be tested and fresh medium only for the control cultures. After varying time of incubation, cells are fixed with glutaric dialdehyde and stored under […] at 4° C. until the end of the experiment. Cells are stained with crystal violet and bound stain is extracted with 70% aqueous EtOH. Optical density is measured with EIA Reader (Bio-Tek Instruments) or Biomek 1000 (Beckman) at 590 nm or 600 nm, respectively. Each data point represents the mean value of eight culture wells. T/C values are calculated as T/C=(T-C0)/(C-C0) where T=optical density of treated cultures, C=optical density of control (untreated) cultures, C0 =optical density of cultures at the start of incubation (t=0).
Cells were incubated in IMEM media containing 5% Hl:DCC-FBS (heat inactivated dextran coated charcoal treated fetal bovine serum) on 96 well plates. Relative cell number in treated and control plates was determined by the crystal violet staining method and was expressed as T/C values where T/C=T-C0 /C-C0×100 [T=absorbance of treated cultures, C= absorbance of control cultures, C0 =absorbance of cultures at the start of incubation (t=0). The measured absorbance is proportionate to the cell number.]

[2] = test system: MXT estrogen independent mouse mammary carcinoma cell line; assay: In vitro cytotoxic activity, crystal violet colorimetric assay on MXT; format: cell-based
Text: as §1, §2, §3

[3] = test system: estrogen independent MXT mouse mammary cancers; assay: Treatment of estrogen independent MXT mouse mammary cancers (KS-49); format: in vivo
Text: In order to compare the tumor inhibitory activity of cytotoxic doxorubicin derivative, Q6 and its targeted cytotoxic peptide conjugate, Q6^14 gL as well as the well known antineoplastic agent, DOX and to determine the optimal way of administration and the nontoxic doses, LH-RH receptor positive MXT (3.2) ovex tumor pieces (1 mm^3) were implanted s. c. in female B6 D2 F1 mice. One day after transplantation the mice were randomly divided into groups of five animals and the treatment started. The compounds were dissolved in 0.1% trifluoroacetic acid (pH 2) and given intraperitoneally.

[4] = Table 17-1; 3 × 10^-8 M; incubation 70 hr
[5] = Table 17-1; 3 × 10^-8 M; incubation 120 hr
[6] = Table 17-1; 3 × 10^-9 M; incubation 70 hr
[7] = Table 17-1; 3 × 10^-9 M; incubation 120 hr
[8] = Table 17-1; 10^-8 M; incubation 70 hr
[9] = Table 17-1; 10^-8 M; incubation 120 hr
[10] = Table 17-1; 3 × 10^-10 M; incubation 70 hr
[11] = Table 17-1; 3 × 10^-10 M; incubation 120 hr
[12] = Table 17-1; 10^-9 M; incubation 70 hr
[13] = Table 17-1; 10^-9 M; incubation 120 hr

SMILES: COc1cccc2c1C(=O)c1c(O)c3c(c(O)c1C2=O)C[C@@](O)(C(=O)CO)C[C@@H]3O[C@H]1C[C@H](N2CCCCC2)[C@H](O)[C@H](C)O1 [AN-183, Piperidino-DOX]
- T/C Value [1, 4]: 4
- T/C Value [1, 5]: 0
- T/C Value [1, 6]: 114
- T/C Value [1, 7]: 109
- T/C Value [1, 8]: 70
- T/C Value [1, 9]: 67

SMILES: COc1cccc2c1C(=O)c1c(O)c3c(c(O)c1C2=O)C[C@@](O)(C(=O)CO)C[C@@H]3O[C@H]1C[C@H](N2CCCC(=O)C2)[C@H](O)[C@H](C)O1.O=C(O)C(F)(F)F [Compound Q7, 3'-deamino-3'-(3"-piperidone-1"-yl) doxorubicin]
- T/C Value [1, 4]: 59
- T/C Value [1, 5]: 43
- T/C Value [1, 6]: 96
- T/C Value [1, 7]: 97
- T/C Value [1, 8]: 80
- T/C Value [1, 9]: 70

SMILES: COc1cccc2c1C(=O)c1c(O)c3c(c(O)c1C2=O)C[C@@](O)(C(=O)CO)C[C@@H]3O[C@H]1C[C@H](N2CC=CC2)[C@H](O)[C@H](C)O1.O=C(O)C(F)(F)F [Compound Q4, 3'-deamino-3'-(3"-pyrroline-1"-yl)doxorubicin]
- T/C Value [1, 5]: -5
- T/C Value [1, 6]: 106
- T/C Value [1, 7]: 97
- T/C Value [1, 8]: 72
- T/C Value [1, 9]: 65

SMILES: COc1cccc2c1C(=O)c1c(O)c3c(c(O)c1C2=O)C[C@@](O)(C(=O)CO)C[C@@H]3O[C@H]1C[C@H](N2Cc3ccccc3C2)[C@H](O)[C@H](C)O1.O=C(O)C(F)(F)F [Compound Q3, 3'-deamino-3'-(isoindoline-2"-yl)doxorubicin]
- T/C Value ([1]; Table 17-1, 10^-8 M; incubation 70 hr): -11
- T/C Value ([1]; Table 17-1, 10^-8 M; incubation 120 hr): -29
- T/C Value [1, 4]: 86
- T/C Value [1, 5]: 77
- T/C Value [1, 8]: 118
- T/C Value [1, 9]: 108

SMILES: COc1cccc2c1C(=O)c1c(O)c3c(c(O)c1C2=O)C[C@@](O)(C(=O)CO)C[C@@H]3O[C@H]1C[C@H](N2CCC(=O)C2)[C@H](O)[C@H](C)O1.O=C(O)C(F)(F)F [Compound Q5, 3'-deamino-3'-(3"-pyrrolidone-1"-yl) doxorubicin]
- T/C Value [1, 4]: -28
- T/C Value [1, 5]: -10
- T/C Value [1, 6]: 87
- T/C Value [1, 7]: 67
- T/C Value [1, 8]: 30
- T/C Value [1, 9]: 25

SMILES: COc1cccc2c1C(=O)c1c(O)c3c(c(O)c1C2=O)C[C@@](O)(C(=O)CO)C[C@@H]3OC1CC(N2C=CCC2)C(O)C(C)O1 (some centres unmarked) [Compound Q6, 3'-deamino-3'-(2"-pyrroline-1"-yl)doxorubicin]
- T/C Value [1, 6]: -18
- T/C Value [1, 7]: -9
- T/C Value [1, 10]: 50
- T/C Value [1, 11]: 26
- T/C Value [1, 12]: -3
- T/C Value [1, 13]: 2
- T/C Value on MCF-7 Cell Line ([1]; Table 18-1; 3 × 10^-9 M; 70 hr): -18
- T/C Value on MCF-7 Cell Line ([1]; Table 18-1; 3 × 10^-9 M; 120 hr): -9
- T/C Value on MCF-7 Cell Line ([1]; Table 18-1; 10^-9 M; 70 hr): -3
- T/C Value on MCF-7 Cell Line ([1]; Table 18-1; 10^-9 M; 120 hr): 2
- T/C Value on MCF-7 Cell Line ([1]; Table 18-1; 10^-10 M (by column position); 70 hr): 50
- T/C Value on MCF-7 Cell Line ([1]; Table 18-1; 10^-10 M (by column position); 120 hr): 26
- T/C value on MXT cell line ([2]; 3 × 1^-11 M (so in the source), 28 hr): 90
- T/C value on MXT cell line ([2]; 3 × 1^-11 M (so in the source), 69 hr): 52
- T/C value on MXT cell line ([2]; 3 × 10^-10 M, 28 hr): 56
- T/C value on MXT cell line ([2]; 3 × 10^-10 M, 69 hr): -13
- T/C value on MXT cell line ([2]; 10^-10 M, 28 hr): 78
- T/C value on MXT cell line ([2]; 10^-10 M, 69 hr): 6
- Average survival ([3]; 0.2 nmol/inj. i.p., total 21 nmol (Groups 5 and 9)): 13.0 days
- Average survival ([3]; 0.5 nmol/inj. i.p., 5 inj./week, total 7.5 nmol (Groups 3 and 7)): 19.6 days
- Toxicity ([3]; 1.25 nmol on day 1, 2, 7 and 8): strong toxicity
- Average survival ([3]; 1.25 nmol/inj. i.p., 2 inj./week, day 1, 2, 7 and 8 (Groups 2 and 6)): 17.4 days and 17.5 days
- Average survival ([3]; 0.25 * nmol/inj. i.p. (dose raised day 9 to 12), total 9.5 nmol (Groups 4 and 8)): 14.6 days
- Average final tumor volume ([3]; Group 2, 1.25 nmol on day 1, 2, 7 and 8, at day 16): 1065 mm^3

SMILES: COc1cccc2c1C(=O)c1c(O)c3c(c(O)c1C2=O)C[C@@](O)(C(=O)CO)C[C@@H]3O[C@H]1C[C@H](N2C=CCCC2)[C@H](O)[C@H](C)O1.O=C(O)C(F)(F)F [Compound Q8, 3'-deamino-3'-(1",3"-tetrahydropyridine-1"-yl)doxorubicin]
- T/C Value [1, 6]: 69
- T/C Value [1, 7]: 62
- T/C Value [1, 10]: 96
- T/C Value [1, 11]: 99
- T/C Value [1, 12]: 88
- T/C Value [1, 13]: 93
